According to patent publication US20240109917A1 (ACTELION PHARMACEUTICALS LTD, priority 2020, published 2024):

Target: PDGFRβ (Rattus norvegicus (Rat), UniProt Q05030)
Assay: PDGFRβ Cellular Assay (PDGFRb P-Y751 HTRF in A10 cells stimulated with PDGF-BB)
Format: cell-based
Conditions: read-out: PDGFR Cellular IC50
Summary of the method: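 Rat A10 cells, plated overnight, were treated with compound for 3 hours, then stimulated with PDGF-BB (working stock 100 ng/mL in 10% FBS medium). After lysis, PDGFRβ P-Y751 was detected by HTRF.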

Sequence of PDGFRβ (Q05030 32-1097): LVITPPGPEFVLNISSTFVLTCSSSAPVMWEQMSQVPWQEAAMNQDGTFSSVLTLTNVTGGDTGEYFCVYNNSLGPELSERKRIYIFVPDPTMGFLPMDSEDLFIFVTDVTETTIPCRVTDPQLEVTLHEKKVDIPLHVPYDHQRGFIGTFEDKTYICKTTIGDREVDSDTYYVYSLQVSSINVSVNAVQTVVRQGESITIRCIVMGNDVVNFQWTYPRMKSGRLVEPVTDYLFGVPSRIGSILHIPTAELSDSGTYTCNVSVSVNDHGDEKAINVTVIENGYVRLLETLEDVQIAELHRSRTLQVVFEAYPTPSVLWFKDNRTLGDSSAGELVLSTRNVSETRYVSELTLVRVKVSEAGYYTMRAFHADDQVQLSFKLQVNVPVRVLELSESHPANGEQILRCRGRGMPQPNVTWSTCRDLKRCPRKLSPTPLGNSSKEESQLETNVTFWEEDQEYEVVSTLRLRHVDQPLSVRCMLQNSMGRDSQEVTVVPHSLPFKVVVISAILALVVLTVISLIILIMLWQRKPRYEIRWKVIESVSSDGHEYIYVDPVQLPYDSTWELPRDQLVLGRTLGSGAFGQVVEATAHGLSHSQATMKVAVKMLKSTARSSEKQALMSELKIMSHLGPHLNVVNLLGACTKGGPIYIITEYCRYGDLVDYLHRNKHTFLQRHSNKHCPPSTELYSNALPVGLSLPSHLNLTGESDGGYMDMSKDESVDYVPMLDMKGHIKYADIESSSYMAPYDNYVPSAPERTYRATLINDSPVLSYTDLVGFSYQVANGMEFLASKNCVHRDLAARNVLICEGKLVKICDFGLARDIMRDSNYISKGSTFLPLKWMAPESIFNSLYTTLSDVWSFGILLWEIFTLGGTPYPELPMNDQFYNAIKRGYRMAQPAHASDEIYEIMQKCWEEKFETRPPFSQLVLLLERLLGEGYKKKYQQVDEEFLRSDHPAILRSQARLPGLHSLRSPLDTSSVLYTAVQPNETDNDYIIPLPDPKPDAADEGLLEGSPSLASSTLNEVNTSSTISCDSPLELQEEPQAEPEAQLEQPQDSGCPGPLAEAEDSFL

Row | Structure (SMILES) | IC50 [nM]
1 | COc1ncccc1-c1cn2ncc(C(=O)Nc3cc(NC(=O)CN4CCCC4(C)C)cnc3C)c2s1 [Example 233, N-(5-(2-(2,2-dimethylpyrrolidin-1-yl)acetamido)-2-methylpyridin-3-yl)-2-(2-methoxypyridin-3-yl)pyrazolo[5,1-b]thiazole-7-carboxamide] | 1.3
2 | Cc1ncc(C(=O)NCCN2CC3CCC2CC3)cc1NC(=O)c1cnn2cc(-c3cnn(C4CC4)c3)sc12 [Example 181, N-(5-((2-(2-azabicyclo[2.2.2]octan-2-yl)ethyl)carbamoyl)-2-methylpyridin-3-yl)-2-(1-cyclopropyl-1H-pyrazol-4-yl)pyrazolo[5,1-b]thiazole-7-carboxamide] | 16.1
3 | Cc1ncc(C(=O)NCCN2CCCC2(C)C)cc1NC(=O)c1cnn2cc(-c3cncc(S(C)(=O)=O)c3)sc12 [Example 230, N-(5-((2-(2,2-dimethylpyrrolidin-1-yl)ethyl)carbamoyl)-2-methylpyridin-3-yl)-2-(5-(methylsulfonyl)pyridin-3-yl)pyrazolo[5,1-b]thiazole-7-carboxamide] | 791
4 | Cc1cc(C(=O)NCCN2CC3CCC2CC3)sc1NC(=O)c1cnn2cc(-c3cnn(C)c3)sc12 [Example 199, N-(5-((2-(2-azabicyclo[2.2.2]octan-2-yl)ethyl)carbamoyl)-3-methylthiophen-2-yl)-2-(1-methyl-1H-pyrazol-4-yl)pyrazolo[5,1-b]thiazole-7-carboxamide] | 237
5 | Cc1ncc(C(=O)NC2CN(C(C)(C)C)C2)cc1NC(=O)c1cnn2cc(-c3cccc4c3cnn4C)sc12 [Example 238, N-(5-((1-(tert-butyl)azetidin-3-yl)carbamoyl)-2-methylpyridin-3-yl)-2-(1-methyl-1H-indazol-4-yl)pyrazolo[5,1-b]thiazole-7-carboxamide] | 181
6 | Cc1ncc(C(=O)NCCN2C[C@H]3CC[C@@H]2C3)cc1NC(=O)c1cnn2cc(-c3cnn(C)c3C)sc12 [Example 208, N-(5-((2-((1R,4S)-2-azabicyclo[2.2.1]heptan-2-yl)ethyl)carbamoyl)-2-methylpyridin-3-yl)-2-(1,5-dimethyl-1H-pyrazol-4-yl)pyrazolo[5,1-b]thiazole-7-carboxamide] | 96
7 | Cc1ncc(C(=O)NCCN2CCCC2)cc1NC(=O)c1cnn2cc(-c3cnn(CCC(O)CO)c3)sc12 (stereo not shown) [Example 222, 2-(1-(3,4-Dihydroxybutyl)-1H-pyrazol-4-yl)-N-(2-methyl-5-((2-(pyrrolidin-1-yl)ethyl)carbamoyl)pyridin-3-yl)pyrazolo[5,1-b]thiazole-7-carboxamide] | 989
8 | COc1ncccc1-c1cn2ncc(C(=O)Nc3cc(C(=O)NCCN4CCCC4)cnc3C)c2s1 [Example 229, 2-(2-Methoxypyridin-3-yl)-N-(2-methyl-5-((2-(pyrrolidin-1-yl)ethyl)carbamoyl)pyridin-3-yl)pyrazolo[5,1-b]thiazole-7-carboxamide] | 15.5
9 | Cc1cc(C(=O)NCCN2CCC3(CCC3)CC2)sc1NC(=O)c1cnn2cc(-c3cnn(C)c3)sc12 [Example 203, N-(5-((2-(7-azaspiro[3.5]nonan-7-yl)ethyl)carbamoyl)-3-methylthiophen-2-yl)-2-(1-methyl-1H-pyrazol-4-yl)pyrazolo[5,1-b]thiazole-7-carboxamide] | 449
10 | Cc1cc(C(=O)NCCN2CCCC2(C)C)sc1NC(=O)c1cnn2cc(-c3ccc(N)nc3)sc12 [Example 184, 2-(6-aminopyridin-3-yl)-N-(5-((2-(2,2-dimethylpyrrolidin-1-yl)ethyl)carbamoyl)-3-methylthiophen-2-yl)pyrazolo[5,1-b]thiazole-7-carboxamide] | 1630
11 | Cc1ncc(C(=O)NCCN2CCCC2)cc1NC(=O)c1cnn2cc(-c3cnn(C)c3C)sc12 [Example 220, 2-(1,5-Dimethyl-1H-pyrazol-4-yl)-N-(2-methyl-5-((2-(pyrrolidin-1-yl)ethyl)carbamoyl)pyridin-3-yl)pyrazolo[5,1-b]thiazole-7-carboxamide] | 59
12 | Cc1ncc(NC(=O)CN2CCC(F)(F)CC2)cc1NC(=O)c1cnn2cc(-c3cnn(C)c3)sc12 [Example 14, N-(5-(2-(4,4-difluoropiperidin-1-yl)acetamido)-2-methylpyridin-3-yl)-2-(1-methyl-1H-pyrazol-4-yl)pyrazolo[5,1-b]thiazole-7-carboxamide] | 4.4
13 | Cc1ncc(NC(=O)CCN2CCCC2(C)C)cc1NC(=O)c1cnn2cc(-c3ccn(C)n3)sc12 [Example 12, N-(5-(3-(2,2-dimethylpyrrolidin-1-yl)propanamido)-2-methyl-pyridin-3-yl)-2-(1-methyl-1H-pyrazol-3-yl)pyrazolo[5,1-b]thiazole-7-carboxamide] | 7.7
14 | Cc1ncc(C(=O)NCCN2CCCC2)cc1NC(=O)c1cnn2cc(-c3cn(C)nc3C(F)(F)F)sc12 [Example 227, 2-(1-Methyl-3-(trifluoromethyl)-1H-pyrazol-4-yl)-N-(2-methyl-5-((2-(pyrrolidin-1-yl)ethyl)carbamoyl)pyridin-3-yl)pyrazolo[5,1-b]thiazole-7-carboxamide] | 438
15 | Cc1cc(C(=O)NCCN2CCCC2(C)C)sc1NC(=O)c1cnn2cc(-c3cnn(C)c3)sc12 [Example 182, N-(5-((2-(2,2-dimethylpyrrolidin-1-yl)ethyl)carbamoyl)-3-methylthiophen-2-yl)-2-(1-methyl-1H-pyrazol-4-yl)pyrazolo[5,1-b]thiazole-7-carboxamide] | 1680
16 | Cc1ncc(C(=O)NCCN2CCCC23CCC3)cc1NC(=O)c1cnn2cc(-c3cnn(C)c3C)sc12 [Example 209, N-(5-((2-(5-azaspiro[3.4]octan-5-yl)ethyl)carbamoyl)-2-methyl-pyridin-3-yl)-2-(1,5-dimethyl-1H-pyrazol-4-yl)pyrazolo[5,1-b]thiazole-7-carboxamide] | 2.8
17 | Cc1cc(C(=O)NCCN2CCCC2(C)C)sc1NC(=O)c1cnn2cc(-c3cnn(C)n3)sc12 [Example 186, N-(5-((2-(2,2-dimethylpyrrolidin-1-yl)ethyl)carbamoyl)-3-methylthiophen-2-yl)-2-(2-methyl-2H-1,2,3-triazol-4-yl)pyrazolo[5,1-b]thiazole-7-carboxamide] | 593
18 | Cc1ncc(NC(=O)OC[C@@H]2CCCN2C(C)C)cc1NC(=O)c1cnn2cc(-c3cnn(C)c3)sc12 [Example 245, (S)-(1-isopropylpyrrolidin-2-yl)methyl (6-methyl-5-(2-(1-methyl-1H-pyrazol-4-yl)pyrazolo[5,1-b]thiazole-7-carboxamido)pyridin-3-yl)carbamate] | 18.1
19 | Cc1cc(C(=O)NCCN2CCC(C)(C)CC2)sc1NC(=O)c1cnn2cc(-c3cnn(C)c3)sc12 [Example 183, N-(5-((2-(4,4-dimethylpiperidin-1-yl)ethyl)carbamoyl)-3-methylthiophen-2-yl)-2-(1-methyl-1H-pyrazol-4-yl)pyrazolo[5,1-b]thiazole-7-carboxamide] | 178
20 | Cc1ncc(NC(=O)CCN2CCCC2(C)C)cc1NC(=O)c1cnn2cc(-c3cccc4c3cnn4C)sc12 [Example 241, N-(5-(3-(2,2-dimethylpyrrolidin-1-yl)propanamido)-2-methylpyridin-3-yl)-2-(1-methyl-1H-indazol-4-yl)pyrazolo[5,1-b]thiazole-7-carboxamide] | 2.7
21 | Cc1ncc(C(=O)N2CC2CNC(C)(C)C)cc1NC(=O)c1cnn2cc(-c3cccc4c3cnn4C)sc12 (stereo not shown) [Example 239, N-(5-(2-((tert-butylamino)methyl)aziridine-1-carbonyl)-2-methylpyridin-3-yl)-2-(1-methyl-1H-indazol-4-yl)pyrazolo[5,1-b]thiazole-7-carboxamide] | 349
22 | Cc1cc(C(=O)NCCN2CC[C@H](O)C2)sc1NC(=O)c1cnn2cc(-c3cnn(C)c3)sc12 [Example 195, (S)—N-(5-((2-(3-hydroxypyrrolidin-1-yl)ethyl)carbamoyl)-3-methylthiophen-2-yl)-2-(1-methyl-1H-pyrazol-4-yl)pyrazolo[5,1-b]thiazole-7-carboxamide] | > 3000
23 | Cc1ncc(NC(=O)CN2CCc3cnn(C)c3C2)cc1NC(=O)c1cnn2cc(-c3cnn(C)c3)sc12 [Example 17, 2-(1-methyl-1H-pyrazol-4-yl)-N-(2-methyl-5-(2-(1-methyl-4,5-dihydro-1H-pyrazolo[3,4-c]pyridin-6 (7H)-yl)acetamido)pyridin-3-yl)pyrazolo[5,1-b]thiazole-7-carboxamide] | 69.5
24 | Cc1cc(C(=O)NCCN(C)C2CCOCC2)sc1NC(=O)c1cnn2cc(-c3cnn(C)c3)sc12 [Example 192, 2-(1-methyl-1H-pyrazol-4-yl)-N-(3-methyl-5-((2-(methyl(tetrahydro-2H-pyran-4-yl)amino)ethyl)carbamoyl)thiophen-2-yl)pyrazolo[5,1-b]thiazole-7-carboxamide] | > 3000
25 | Cc1cc(C(=O)NCCN2CCC(C)(C)C2)sc1NC(=O)c1cnn2cc(-c3cnn(C)c3)sc12 [Example 189, N-(5-((2-(3,3-dimethylpyrrolidin-1-yl)ethyl)carbamoyl)-3-methylthiophen-2-yl)-2-(1-methyl-1H-pyrazol-4-yl)pyrazolo[5,1-b]thiazole-7-carboxamide] | 72.3
26 | Cc1ncc(C(=O)NCCN2CC3CCC2C3)cc1NC(=O)c1cnn2cc(-c3cn(C)nc3C)sc12 (stereo not shown) [Example 212, N-(5-((2-(2-azabicyclo[2.2.1]heptan-2-yl)ethyl)carbamoyl)-2-methylpyridin-3-yl)-2-(1,3-dimethyl-1H-pyrazol-4-yl)pyrazolo[5,1-b]thiazole-7-carboxamide] | 104
27 | Cc1ncc(NC(=O)OCC(C)(C)N2CCCC2)cc1NC(=O)c1cnn2cc(-c3cnn(C)c3)sc12 [Example 249, 2-methyl-2-(pyrrolidin-1-yl)propyl (6-methyl-5-(2-(1-methyl-1H-pyrazol-4-yl)pyrazolo[5,1-b]thiazole-7-carboxamido)pyridin-3-yl)carbamate] | 59.8
28 | Cc1ncc(C(=O)NCCN2CCCC2(C)C)cc1NC(=O)c1cnn2cc(-c3cnn(CCC(O)CO)c3)sc12 (stereo not shown) [Example 221, 2-(1-(3,4-Dihydroxybutyl)-1H-pyrazol-4-yl)-N-(5-((2-(2,2-dimethylpyrrolidin-1-yl)ethyl)carbamoyl)-2-methylpyridin-3-yl)pyrazolo[5,1-b]thiazole-7-carboxamide] | 1710
